Measured values taken from patent US20260226037A1, “MICROTUBULE TARGETING AGENTS” (ARIEL SCIENTIFIC INNOVATIONS LTD., priority 2022, published 2026).

What was measured:
N6/ADR cells = assay: XTT cytotoxicity, N6/ADR; assay type: cell-based
[1] = system: metastatic breast adenocarcinoma cells; assay: XTT cytotoxicity, metastatic breast adenocarcinoma cells; assay type: cell-based; settings: highest of the range
Protocol: (§1) The cytotoxic activity of the novel family was evaluated against various tumor cells, including myeloma cells, acute lymphoblastic leukemia cells, acute monocytic leukemia cells, chronic myelogenous leukemia cells, pancreatic cancer cells, breast cancer cells, uterine sarcoma cells, cervix adenocarcinoma cells, ovary cancer cells, melanoma cells, osteosarcoma cells, prostate cancer cells, lung cancer cells, neuroblastoma cells and colorectal adenocarcinoma cells by XTT assay.

RPMI8226 cells = assay: Cell cycle distribution by flow cytometry; assay type: cell-based
Protocol: Cell cycle arrest is a shared consequence of MTAs treatment. The effects of cell cycle distribution were determined in RPMI8226 cells treated for 6 and 18 hours with a range of concentrations of the molecules. The cells were stained with propidium iodide and cell cycle distribution was measured using a cytoFLEX flow cytometer.

RPMI-DOX40 cells = assay: XTT cytotoxicity, RPMI-DOX40; assay type: cell-based
Procedure, shortened: (§2)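 Cells are exposed to compound and viability is scored by XTT.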

NALM6 cells = assay: XTT cytotoxicity, NALM6; assay type: cell-based; settings: Homo sapiens, NALM-6; NALM6, acute lymphoblastic leukemia, non-resistant; read-out: IC50
[2] = system: colchicine binding site on tubulin protein; assay: EBI competition assay, RPMI-8226 cells; assay type: cell-based; settings: RPMI-8226 living cells
RPMI-MR20 cells = assay: XTT cytotoxicity, RPMI-MR20; assay type: cell-based
Procedure, shortened: as §2

HUVEC cells [3] = assay: Disruption of pre-formed HUVEC capillary-like tubes; assay type: cell-based, human; settings: tubes formed 4 hours, then 2 hours exposure
Protocol: The analysis of the anti-vascular effect was performed by seeding HUVEC cells on Matrigel matrix, and incubated them until formation of capillary-like tubes, reminiscent of newly formed vessels after 4 hours.

[4] = Water solubility (microscope images); assay type: physicochemical; settings: compared with benzene, furan, thiophene, thiazole or pyridine analogues
Text: Solubility of the synthesized molecules was compared to equivalent molecules having a benzene, furan, thiophene, thiazole or pyridine group instead of oxazole group (Table 2).

[5] = system: colchicine binding site on tubulin protein; assay: EBI competition assay, HELA cells; assay type: cell-based
NCI-H69 cells = assay: XTT cytotoxicity, NCI-H69; assay type: cell-based; settings: Homo sapiens; NCI-H69, small cell lung carcinoma, non-resistant
Protocol: as §1

MES-SA/DX5 cells = assay: XTT cytotoxicity, MES-SA/DX5; assay type: cell-based
Procedure, shortened: as §2

HUVEC cells [6] = assay: HUVEC tube formation on Matrigel; assay type: cell-based, human
Protocol: Endothelial cells seeded on Matrigel are able to form three-dimensional capillary structures with a lumen resembling the first angiogenesis steps.
The analysis of anti-angiogenic effect was performed by exposing HUVEC cells to the compounds and seeding them on Matrigel matrix for 4 hours. During this time, control group formed an extensive network lumen-like structure as compared to partially disorganized cells treated with lower doses of SMS077 and SMS182 and disorganized and rounded cells treated with higher doses of the molecules.

CCCCCOC(=O)c1[nH]c2c(c1C)C(=O)CC(c1ncco1)C2 (centres unmarked) [SMS077, pentyl 3-methyl-6-(oxazol-2-yl)-4-oxo-4,5,6,7-tetrahydro-1H-indole-2-carboxylate]
IC50 ratio between resistant and non-resistant cells (N6/ADR cells; N6/ADR / NALM6): 0.895 | IC50 (N6/ADR cells; N6/ADR, acute lymphoblastic leukemia, P-gp overexpression, read-out: IC50): 17 nM | IC50 [1]: 426 nM | cell cycle arrest (RPMI8226 cells; 6 hours, IC50, IC50x2.5 and IC50x5 concentrations): cell cycle arrest in G2M phase | subG0 phase (RPMI8226 cells; 18 hours of treatment): increased in subG0 phase | IC50 (RPMI-DOX40 cells; RPMI-DOX40, multiple myeloma, P-gp overexpression, read-out: IC50): 25 nM | IC50 ratio between resistant and non-resistant cells (RPMI-DOX40 cells; RPMI-DOX40 / RPMI 8226): 0.962 | sensitivity of resistant subline vs parental cells (RPMI-DOX40 cells; RPMI-Dox40 vs RPMI8226 (RPMI-S)): no difference in their sensitivity | IC50 (NALM6 cells): 19 nM | prevention of covalent binding of EBI to the colchicine binding site [2]: prevented the covalent binding of EBI to the colchicine binding site | IC50 (RPMI-MR20 cells; RPMI-MR20, mitoxantrone resistant, read-out: IC50): 23 nM | IC50 ratio between resistant and non-resistant cells (RPMI-MR20 cells; RPMI-MR20 / RPMI 8226): 0.885 | disruption of pre-formed capillary-like tube network (HUVEC cells [3]): disrupted the integrity of the network in a dose dependent manner | water solubility [4]: better water solubility | binding to the colchicine binding site [5]: bound to the colchicine binding site | IC50 (NCI-H69 cells): 163 nM | IC50 (MES-SA/DX5 cells; Homo sapiens, MES-SA/DX5, uterine sarcoma, P-gp overexpression): 65 nM | IC50 ratio between resistant and non-resistant cells (MES-SA/DX5 cells; MES-SA/DX5 / MES-SA): 0.508 | inhibition of tubule formation (HUVEC cells [6]; 4 hours): dose dependent inhibition of tubule formation | concentration at which tubule formation was significantly inhibited (HUVEC cells [6]; 4 hours of treatment): 75 nM
